Assay results reported in US20120016019A1, “PHARMACEUTICAL COMPOSITION FOR TREATING OR PREVENTING CANCER” (priority 2010, published 2012).
Several values for one entry are separate records, joined by “and”; a condition that tells them apart may be missing. Equal entries are not always repeated. Where two headings read alike, the source gives them in different places.

Key:
HCC 1419 = test: Cell counts, HCC 1419; format: cell-based; conditions: for cell counts: single wells
Protocol: Cells were plated into 48-well Corning CellBind™ plates at densities of 20,000 cells for normal cells and 10,000˜20,000 cells for cancer cells. […] The first time point treated with the composition of the invention is 0 h.
Cells were harvested using Trypsin-EDTA at the designated time points. […] Two 48-well plates were used per cell line, and they were measured at 0 h, 12 h, 24 h, 48 h, 4 d and 7 d, respectively.
In the 1st plate, cells were treated with the composition according to the invention and medium was changed at 0 h and 3 d. […] As a result, LC-50 curves were generated in the 1st week.

HT 1299 = conditions: for The cytotoxicity / The viability: 220 nM; for The absorbance / The absorbance, Mean value / The absorbance, group - Blank: HT 1299
Protocol: (§1) Cancer cell lines HCC 1419, MCF-7, MDA-MB-468, SKBR3, PC3, HT1299, Saos-2, C-6, AsPc, MDA-MB-231, RKO, HeLa and TT, and normal cell lines HME 50 HT, BJ and CCD-1074sk were tested for changes in metabolism (XTT assay) and cell death (cell counts).
(§2) Cells were plated into 48-well Corning CellBind™ plates at densities of 20,000 cells for normal cells and 10,000˜20,000 cells for cancer cells. 24 to 48 h after plating, cells were treated with the composition according to the invention at concentrations of 4.5e-2M. The first time point treated with the composition of the invention is 0 h. At 3 days after the first treatment with the composition of the invention, medium was changed and the composition of the invention at the same concentrations were added to the cultured cells.
(§3) The XTT assay is an accepted analysis technique for viability and cytotoxicity of anticancer drugs or other pharmaceutical compositions. Cells were seeded in a 96-well tissue culture plate at a density of 10,000 cells for normal cells and 5,000 cells for cancer cells. After incubation period, the formazan dye formed was quantitated using an ELISA reader. The optimal wavelength used in experiments was 500 nm, and it was measured at 0 h, 12 h, 24 h, 48 h, 4 d and 7 d, respectively. The obtained values were generated using the software SoftMax Pro 4.8.
(§4) The cell viability was calculated according to the manufacturer's instructions as follows (the term “blank” means XTT in medium only):
(§5) Cellular cytotoxicity was calculated according to the manufacturer's instructions as follows: […]

SKBR3 = conditions: for The absorbance, Mean value / The absorbance, group - Blank / The absorbance: SKBR3, XTT 500 nm; for The absorbance: single wells
Protocol: as §1, §2, §3, §4, §5

BJ = format: cell-based; conditions: for cell counts, Mean value / cell counts: BJ; for cell counts: single count
Protocol: As a result, LC-50 curves were generated in the 1st week.
In the 2nd plate, 7 d of the 1st week (LC-50) is the same as 0 h of the 2nd week (recovery).
At 0 h of the 2nd week, medium was exchanged with untreated medium for the remainder of the experiment. The untreated controls were not measured in the 2nd week (recovery) due to overconfluence by the end of the 1st week. As a result, Recovery curves were generated in the 2nd week.
(15) BJ—Normal Fibroblasts BJ cells were derived from normal foreskin of a newborn, and have a long lifespan in comparison with other normal human fibroblast cells. Although they have the capacity to proliferate to a maximum of 72 population doublings before the onset of senescence, they are telomerase negative.

[1] = XTT 500 nm, 2nd week (recovery), 0 h
[2] = XTT 500 nm, 2nd week (recovery), 24 h
[3] = XTT 500 nm, 2nd week (recovery), 48 h
[4] = XTT 500 nm, 2nd week (recovery), 4 d

CC(=O)O[C@H]1C(=O)[C@@]2(C)[C@H]([C@H](OC(=O)c3ccccc3)[C@]3(O)C[C@H](OC(=O)[C@H](O)[C@@H](NC(=O)c4ccccc4)c4ccccc4)C(C)=C1C3(C)C)[C@]1(OC(C)=O)CO[C@@H]1C[C@@H]2O [Taxol]
growth pattern of the cells in the well (microscopy) (HCC 1419): growing in a diffuse, spreading pattern over the whole well
number of cancer cells (course) (HCC 1419; 1st week (LC50) and 2nd week (recovery)): did not decreased any more and was maintained
cell counts, Mean value (HCC 1419; 1st week (LC50), 0 h): 3156
cell counts (HCC 1419; 1st week (LC50), 0 h): 3055 and 2626 and 3788
cell counts, Mean value (HCC 1419; 1st week (LC50), 12 h): 3479
cell counts (HCC 1419; 1st week (LC50), 12 h): 3434 and 3451 and 3553
cell counts, Mean value (HCC 1419; 1st week (LC50), 24 h): 3036
cell counts (HCC 1419; 1st week (LC50), 24 h): 2957 and 3488 and 2664
cell counts, Mean value (HCC 1419; 1st week (LC50), 48 h): 2978
cell counts (HCC 1419; 1st week (LC50), 48 h): 2232 and 3502 and 3199
cell counts, Mean value (HCC 1419; 1st week (LC50), 4 d): 2544
cell counts (HCC 1419; 1st week (LC50), 4 d): 1716 and 2940 and 2975
cell counts, Mean value (HCC 1419; 1st week (LC50), 7 d): 1741
cell counts (HCC 1419; 1st week (LC50), 7 d): 1718 and 1710 and 1794
cell counts, Mean value (HCC 1419; 2nd week (recovery), 0 h): 8878
cell counts (HCC 1419; 2nd week (recovery), 0 h): 8472 and 8522 and 9639
cell counts (HCC 1419; 2nd week (recovery), 24 h): 7966
cell counts (HCC 1419; 2nd week (recovery), 48 h): 4901
cell counts (HCC 1419; 2nd week (recovery), 7 d): 7316 and 3792
The cytotoxicity (HT 1299; 0 h): 0.0206
The viability (HT 1299; 0 h): 0.9794
The cytotoxicity (HT 1299; 12 h): 0.0709
The viability (HT 1299; 12 h): 0.9291
The cytotoxicity (HT 1299; 24 h): 0.0409
The viability (HT 1299; 24 h): 0.9591
The cytotoxicity (HT 1299; 48 h): 0.0368
The viability (HT 1299; 48 h): 0.9632
The viability (HT 1299; 4 d): 0.8406
The viability (HT 1299; 7 d): 0.3389
The absorbance (HT 1299; 1st week (LC50), 0 h): 2.7643 and 2.716 and 2.6703
The absorbance, Mean value (HT 1299; 1st week (LC50), 0 h): 2.7169
The absorbance, group - Blank (HT 1299; 1st week (LC50), 0 h): 2.5063
The absorbance (HT 1299; 1st week (LC50), 12 h): 2.8939 and 2.8933 and 2.8787
The absorbance, Mean value (HT 1299; 1st week (LC50), 12 h): 2.8886
The absorbance, group - Blank (HT 1299; 1st week (LC50), 12 h): 2.6781
The absorbance (HT 1299; 1st week (LC50), 24 h): 2.7759 and 2.8539 and 2.8128
The absorbance, Mean value (HT 1299; 1st week (LC50), 24 h): 2.8142
The absorbance, group - Blank (HT 1299; 1st week (LC50), 24 h): 2.6036
The absorbance (HT 1299; 1st week (LC50), 48 h): 2.5408 and 2.6225 and 2.6333
The absorbance, Mean value (HT 1299; 1st week (LC50), 48 h): 2.5989
The absorbance, group - Blank (HT 1299; 1st week (LC50), 48 h): 2.3883
The absorbance (HT 1299; 1st week (LC50), 4 d): 2.817 and 2.6791 and 2.5786
The absorbance, Mean value (HT 1299; 1st week (LC50), 4 d): 2.6916
The absorbance, group - Blank (HT 1299; 1st week (LC50), 4 d): 2.4810
The absorbance (HT 1299; 1st week (LC50), 7 d): 1.504
The absorbance, group - Blank (HT 1299; 1st week (LC50), 7 d): 1.0771
The absorbance, Mean value (HT 1299; [1]): 2.0676
The absorbance, group - Blank (HT 1299; [1]): 1.7954
The absorbance (HT 1299; XTT 500 nm, 2nd week (recovery), 0 h, single wells): 1.9675 and 1.8392 and 2.3962
The absorbance, Mean value (HT 1299; [2]): 2.6177
The absorbance, group - Blank (HT 1299; [2]): 2.3455
The absorbance (HT 1299; XTT 500 nm, 2nd week (recovery), 24 h, single wells): 2.6918 and 2.5521 and 2.6093
The absorbance, Mean value (HT 1299; [3]): 2.4695
The absorbance, group - Blank (HT 1299; [3]): 2.1973
The absorbance, Mean value (HT 1299; [4]): 2.3404
The absorbance, group - Blank (HT 1299; [4]): 2.0681
The absorbance (HT 1299; XTT 500 nm, 2nd week (recovery), 4 d, single wells): 2.6902 and 1.9256 and 2.4054
The cytotoxicity (HT 1299; human, 0 h): 0.2984
The viability (HT 1299; human, 0 h): 0.7016
The cytotoxicity (HT 1299; human, 24 h): 0.1360
The viability (HT 1299; human, 24 h): 0.8640
The cytotoxicity (HT 1299; human, 48 h): 0.1139
The viability (HT 1299; human, 48 h): 0.8861
The viability (HT 1299; human, 4 d): 0.7007
The cytotoxicity (HT 1299; human, 7 d): 0.6611
The absorbance, Mean value (SKBR3; 1st week (LC50), 0 h): 0.3968
The absorbance, group - Blank (SKBR3; 1st week (LC50), 0 h): 0.2164
The absorbance (SKBR3; 1st week (LC50), 0 h): 0.4034 and 0.3885 and 0.3985
The absorbance, Mean value (SKBR3; 1st week (LC50), 12 h): 1.5205
The absorbance, group - Blank (SKBR3; 1st week (LC50), 12 h): 1.3402
The absorbance, group - Blank (SKBR3; 1st week (LC50), 24 h): 1.8347
The absorbance, Mean value (SKBR3; 1st week (LC50), 48 h): 1.6721
The absorbance, group - Blank (SKBR3; 1st week (LC50), 48 h): 1.4917
The absorbance (SKBR3; 1st week (LC50), 48 h): 1.6738 and 1.629 and 1.7134
The absorbance, Mean value (SKBR3; 1st week (LC50), 4 d): 1.1935
The absorbance (SKBR3; 1st week (LC50), 4 d): 1.2586 and 1.1724 and 1.1494
The absorbance, Mean value (SKBR3; 1st week (LC50), 7 d): 1.0281
The absorbance, group - Blank (SKBR3; 1st week (LC50), 7 d): 0.8478
The absorbance (SKBR3; 1st week (LC50), 7 d): 0.9379 and 0.9708 and 1.1757
The absorbance, Mean value (SKBR3; 2nd week (recovery), 0 h): 1.0435
The absorbance, group - Blank (SKBR3; 2nd week (recovery), 0 h): 0.8631
The absorbance (SKBR3; 2nd week (recovery), 0 h): 1.0568 and 1.0836 and 0.99
The absorbance, Mean value (SKBR3; 2nd week (recovery), 24 h): 1.1704
The absorbance, group - Blank (SKBR3; 2nd week (recovery), 24 h): 0.9900
The absorbance (SKBR3; 2nd week (recovery), 24 h): 1.1654 and 1.3673 and 0.9784
The absorbance, Mean value (SKBR3; 2nd week (recovery), 48 h): 1.0440
The absorbance, group - Blank (SKBR3; 2nd week (recovery), 48 h): 0.8636
The absorbance (SKBR3; 2nd week (recovery), 48 h): 0.9057 and 0.8251 and 1.4012
The absorbance, Mean value (SKBR3; 2nd week (recovery), 4 d): 1.2517
The absorbance, group - Blank (SKBR3; 2nd week (recovery), 4 d): 1.0713
The absorbance (SKBR3; 2nd week (recovery), 4 d): 1.252 and 1.6151 and 0.888
The absorbance, Mean value (SKBR3; 2nd week (recovery), 7 d): 0.9393
The absorbance, group - Blank (SKBR3; 2nd week (recovery), 7 d): 0.7590
The absorbance (SKBR3; 2nd week (recovery), 7 d): 0.7048 and 1.1412 and 0.972
The cytotoxicity (SKBR3; human, 0 h, 220 nM): −1.4298
The viability (SKBR3; human, 12 h, 220 nM): 0.7165
The cytotoxicity (SKBR3; human, 24 h, 220 nM): 0.4771
The cytotoxicity (SKBR3; human, 48 h, 220 nM): 0.6010
appearance of normal cells (microscopy) (BJ): fully destroyed
proliferation of normal cells (BJ): decreased due to stress by toxicity of Taxol
cell counts, Mean value (BJ; 1st week (LC50), 0 h): 16333
cell counts (BJ; 1st week (LC50), 0 h): 14000 and 17000 and 18000
cell counts, Mean value (BJ; 1st week (LC50), 12 h): 11000
cell counts (BJ; 1st week (LC50), 12 h): 12000 and 9000
cell counts, Mean value (BJ; 1st week (LC50), 24 h): 12667
cell counts (BJ; 1st week (LC50), 24 h): 10000 and 17000 and 11000
cell counts, Mean value (BJ; 1st week (LC50), 48 h): 11667
cell counts (BJ; 1st week (LC50), 48 h): 14000 and 10000 and 11000
cell counts, Mean value (BJ; 1st week (LC50), 4 d): 6333
cell counts (BJ; 1st week (LC50), 4 d): 9000 and 5000
cell counts, Mean value (BJ; 1st week (LC50), 7 d): 6667
cell counts, Mean value (BJ; 2nd week (recovery), 0 h): 19
cell counts, Mean value (BJ; 2nd week (recovery), 24 h): 8
cell counts (BJ; 2nd week (recovery), 24 h): 7 and 9
cell counts, Mean value (BJ; 2nd week (recovery), 48 h): 13
cell counts (BJ; 2nd week (recovery), 48 h): 8 and 14 and 16
cell counts, Mean value (BJ; 2nd week (recovery), 4 d): 11
cell counts, Mean value (BJ; 2nd week (recovery), 7 d): 28
cell counts (BJ; 2nd week (recovery), 7 d): 35 and 29 and 19
